Test systems include SR leukemia; HL-60(TB) leukemia; HOP-62 NSCLC; HOP-92 NSCLC; OVCAR-4 ovarian; MDA-MB-231 breast; LOX IMVI melanoma; SF-268 CNS; ACHN renal; SF-539 CNS; A549 NSCLC.
Holding throughout (assay): DTP human tumour cell line panel, 48 h

The structures appear in SMILES notation.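 Values below derive from 48-hour exposures of cells grown in 96-well plates, with endpoints linearly interpolated between the two concentrations bracketing the appropriate inhibition level. TGI marks complete inhibition of growth.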 *1 amine or outer side, *2 acyl side, *3 side chain or, on linkers, in order; H or OH if unused. Where a SMILES comes first, the peptide text is derived from it. Bridges are numbered along the chain shown (N, C = ends). Roman numbers before positions name the chains, in order. [ ]: non-standard residue; d: D form. Actinocin(9to1) = Cc1c2oc3c(C)ccc(C(=O)[*:1])c3nc-2c(C(=O)[*:2])c(N)c1=O; NMeH = CN[CH](Cc1c[nH]cn1)C(=O)O; Sar = CNCC(=O)O Where only a bound is given, the exact number is not on record here.

Regarding `C#C[C@]1(O)CC[C@H]2[C@@H]3CCC4=C/C(=N/NC(=O)c5cccc6c(=O)c7ccccc7[nH]c56)CCC4[C@H]3CC[C@@]21C` (stereo not given in full), the TGI in the test on SR leukemia, in the test with HL-60(TB) leukemia, in the test with HOP-62 NSCLC, in the test on HOP-92 NSCLC, in the test with OVCAR-4 ovarian and in the test with MDA-MB-231 breast was > 100 µM throughout. The TGI in the test with LOX IMVI melanoma, in the test with SF-268 CNS, in the test on ACHN renal, with SF-539 CNS and with A549 NSCLC was > 100 µM each time.
With `CN1/C(=C/C=C/C=C/C=C2C(=O)c3ccccc3C2=O)C(C)(C)c2ccccc21`, the TGI (in general, the concentration giving total growth inhibition) in the test on SR leukemia is > 100 µM; in the test with HL-60(TB) leukemia, > 100 µM; in the test on HOP-62 NSCLC, > 100 µM; with HOP-92 NSCLC it was 58 µM; with OVCAR-4 ovarian, > 100 µM; with MDA-MB-231 breast, > 100 µM. The TGI in the test on LOX IMVI melanoma is > 100 µM; with SF-268 CNS, > 100 µM; with ACHN renal, > 100 µM; in the test on SF-539 CNS it was 91.3 µM; with A549 NSCLC, > 100 µM.
On to `Cc1c2oc3c(C)ccc(C(=O)NC4C(=O)NC(C(C)C)C(=O)N5CCCC5C(=O)N(C)CC(=O)N(C)C(Cc5cnc[nH]5)C(=O)OC4C)c3nc-2c(C(=O)NC2C(=O)NC(C(C)C)C(=O)N3CCCC3C(=O)N(C)CC(=O)N(C)C(Cc3cnc[nH]3)C(=O)OC2C)c(N)c1=O` (stereo not given) (I: TVP[Sar][NMeH] / II: TVP[Sar][NMeH]; ester I:1-I:C, II:1-II:C; linker I:N-II:N via Actinocin(9to1); configuration not given here), for which the TGI in the test on SR leukemia, in the test with HL-60(TB) leukemia, with HOP-62 NSCLC, with HOP-92 NSCLC, in the test with OVCAR-4 ovarian and in the test with MDA-MB-231 breast was > 100 µM in each case. Also, the TGI with LOX IMVI melanoma, in the test on SF-268 CNS, in the test on ACHN renal, in the test with SF-539 CNS and in the test on A549 NSCLC was > 100 µM throughout.
On to `COc1cc2ccc(C(=O)NCCCNC(=O)c3ccc4cc(OC)c(OC)cc4c3)cc2cc1OC`, for which the TGI with SR leukemia, in the test on HL-60(TB) leukemia, in the test on HOP-62 NSCLC, with HOP-92 NSCLC, in the test on OVCAR-4 ovarian and in the test on MDA-MB-231 breast was > 100 µM in each case. The TGI with LOX IMVI melanoma, in the test with SF-268 CNS, in the test with ACHN renal, in the test on SF-539 CNS and in the test with A549 NSCLC was > 100 µM throughout.
With `C[C@@H]1[C@@H](C)C(c2ccccc2)O[Si]1(C(C)(C)C)C(C)(C)C` (stereo not given in full), the TGI in the test on SR leukemia is 29.3 µM; with HOP-62 NSCLC, 31.4 µM; in the test with HOP-92 NSCLC, 38.8 µM; in the test with OVCAR-4 ovarian, > 86.1 µM; with MDA-MB-231 breast, 31.3 µM; with LOX IMVI melanoma, 30.9 µM. Also, the total growth inhibition concentration (TGI) was 61.2 µM in the test with SF-268 CNS, 31.5 µM in the test on ACHN renal, 30.7 µM in the test on SF-539 CNS and 30.3 µM in the test with A549 NSCLC.
`CC1=NN(c2cccc(Cl)c2)C2(C1=Cc1ccc(O)cc1)C(Cl)C(=O)N2c1nc2ccccc2s1` (stereo not given): the TGI with SR leukemia is 57.7 µM; with HL-60(TB) leukemia, > 100 µM; with HOP-62 NSCLC it was 51.8 µM; in the test with HOP-92 NSCLC, 37.5 µM; in the test on OVCAR-4 ovarian, > 100 µM; in the test on MDA-MB-231 breast, 76.1 µM. Moreover, the TGI in the test on LOX IMVI melanoma was 47.5 µM; in the test with SF-268 CNS, 86 µM; in the test on ACHN renal it was 52.7 µM; in the test on SF-539 CNS, > 100 µM.
As for `N#CC1(C#N)C(C#N)(C#N)C1(C#N)C(N)=O`, the TGI in the test with SR leukemia, with HL-60(TB) leukemia, with HOP-62 NSCLC, with HOP-92 NSCLC, with OVCAR-4 ovarian and in the test on MDA-MB-231 breast was > 100 µM each time. Moreover, the TGI in the test on LOX IMVI melanoma, in the test on SF-268 CNS, with ACHN renal and in the test on A549 NSCLC was > 100 µM in each case.
On to `CC1C(NNC(N)=O)Oc2cc3c(cc2C1c1ccccc1O)OCO3` (stereo not given), for which the TGI with SR leukemia was 43.1 µM; with HL-60(TB) leukemia, 35.4 µM; with HOP-62 NSCLC, > 100 µM; in the test with HOP-92 NSCLC it was 50.4 µM; in the test with MDA-MB-231 breast, > 100 µM; with LOX IMVI melanoma, > 100 µM. In addition, the TGI is > 100 µM in the test with SF-268 CNS, > 100 µM in the test with ACHN renal, 74 µM in the test with SF-539 CNS and > 100 µM in the test on A549 NSCLC.
`Cn1nc2ccc(Nc3cc(=O)[nH]c4ccc5nn(C)nc5c34)cc2n1`: the TGI with SR leukemia, in the test with HOP-62 NSCLC, in the test with HOP-92 NSCLC, in the test with OVCAR-4 ovarian, in the test with MDA-MB-231 breast and in the test on SF-268 CNS was > 100 µM in each case. Moreover, the TGI in the test on ACHN renal, in the test with SF-539 CNS and in the test with A549 NSCLC was > 100 µM in each case.
In the case of `CC[C@@]1(O)C(=O)OCc2c1cc1n(c2=O)Cc2c-1nc1ccc(O)cc1c2[Si](C)(C)C(C)(C)C`, the TGI with SR leukemia is < 0.0112 µM; with HL-60(TB) leukemia, < 0.01 µM; in the test on HOP-62 NSCLC it was 1.49 µM; in the test on HOP-92 NSCLC, 2.31 µM; in the test on OVCAR-4 ovarian, 0.174 µM; in the test with MDA-MB-231 breast it was 20.6 µM. The TGI was 0.163 µM in the test on LOX IMVI melanoma, 0.804 µM with SF-268 CNS, < 0.01 µM in the test with SF-539 CNS and 1.19 µM in the test on A549 NSCLC.
As to `NS(=O)(=O)c1nc(S(=O)(=O)O)c2[nH]cnc2n1`, the TGI in the test with SR leukemia, in the test on HOP-62 NSCLC, in the test on HOP-92 NSCLC, in the test with OVCAR-4 ovarian, in the test on MDA-MB-231 breast and with LOX IMVI melanoma was > 100 µM in each case. The TGI in the test with SF-268 CNS, in the test with ACHN renal, in the test with SF-539 CNS and in the test with A549 NSCLC was > 100 µM throughout.
Regarding `Cc1cccc2c(N)c3cccc(C(=O)NCC[N+](C)(C)Cc4ccc([N+](=O)[O-])s4)c3nc12`, the TGI in the test with SR leukemia was found to be 5.7 µM; with HOP-62 NSCLC, 32.5 µM; in the test with HOP-92 NSCLC, 68.8 µM; with OVCAR-4 ovarian, 25.1 µM; in the test with MDA-MB-231 breast, 21.3 µM; in the test on LOX IMVI melanoma, 18.6 µM. In addition, the TGI with SF-268 CNS was 36.9 µM; in the test with ACHN renal, > 49.2 µM; in the test with SF-539 CNS, 23.9 µM; with A549 NSCLC, 17.5 µM.
Regarding `Clc1sc(Cl)c2c1[C@@H](Cl)C[C@@H]2Cl`, the TGI in the test on SR leukemia, with HOP-62 NSCLC, in the test on HOP-92 NSCLC, in the test with OVCAR-4 ovarian, with MDA-MB-231 breast and in the test with LOX IMVI melanoma was > 100 µM each time. Also, the TGI in the test with SF-268 CNS, with ACHN renal, with SF-539 CNS and in the test with A549 NSCLC was > 100 µM throughout.
Take `C1=NCCNCCNCCN=Cc2ccc(cc2)OCc2cccc(n2)COc2ccc1cc2`: the TGI in the test on SR leukemia, in the test on HL-60(TB) leukemia, in the test on HOP-62 NSCLC, in the test with HOP-92 NSCLC, with OVCAR-4 ovarian and in the test on MDA-MB-231 breast was > 100 µM throughout. The TGI in the test on SF-268 CNS, in the test on ACHN renal, with SF-539 CNS and in the test on A549 NSCLC was > 100 µM throughout.
In the case of `COC(C/C(=C/CO[Si](C(C)C)(C(C)C)C(C)C)C(=O)N(COCC[Si](C)(C)C)c1ccccc1I)OC`, the TGI in the test on SR leukemia is > 100 µM; in the test with HOP-62 NSCLC, > 100 µM; with HOP-92 NSCLC, > 100 µM; in the test with OVCAR-4 ovarian it was > 100 µM; with MDA-MB-231 breast, > 100 µM; with LOX IMVI melanoma it was 37.8 µM. For the same molecule, the TGI in the test on ACHN renal and in the test with A549 NSCLC was > 100 µM in each case.
In the case of `CCCC[C@@H](C)/C=C1\CN2CCC[C@H]2[C@@](C)(OCc2ccccc2)[C@@H]1O`, the TGI in the test with SR leukemia is > 50 µM; with HOP-62 NSCLC, 18.4 µM; in the test with HOP-92 NSCLC, > 50 µM; with OVCAR-4 ovarian it was > 50 µM; in the test on MDA-MB-231 breast it was > 50 µM; in the test with LOX IMVI melanoma, > 50 µM. Besides, the TGI is > 50 µM in the test with SF-268 CNS, > 50 µM in the test on ACHN renal, 49.7 µM with SF-539 CNS and > 50 µM in the test on A549 NSCLC.
Turning to `Cc1cc(C)c2c(c1)CC1(Cc3cc(C)c(C)cc3C1=O)C2=O` (stereo not given), the TGI with SR leukemia, with HL-60(TB) leukemia, in the test on HOP-92 NSCLC, in the test on OVCAR-4 ovarian, with MDA-MB-231 breast and in the test with LOX IMVI melanoma was > 100 µM in each case. In addition, the TGI in the test on SF-268 CNS, with ACHN renal, in the test with SF-539 CNS and in the test on A549 NSCLC was > 100 µM in each case.
With `COc1cccc(N=N/C(=N/NC(=O)c2ccc(C)cc2)c2ccc(N(CCC#N)CCC#N)cc2OC)c1`, the TGI in the test on SR leukemia, in the test on HOP-62 NSCLC, in the test on HOP-92 NSCLC, in the test with OVCAR-4 ovarian, with MDA-MB-231 breast and with LOX IMVI melanoma was > 100 µM each time. In addition, the TGI with SF-268 CNS, in the test with ACHN renal and in the test on A549 NSCLC was > 100 µM in each case.

The values above are taken from PubChem BioAssay (NCI).
